Six molecules from patent US20110098323A1, “INHIBITORS OF BACTERIAL BIOFILM FORMATION” (MICROBIOTIX, INC., priority 2009, published 2011) can be followed below.

For orientation: MIC means the least concentration at which growth counts as inhibited.

The test system of test [1] is S. epidermidis strain 1457. The experiment in a line: MBIC/MIC secondary assay. In kind it is cell-based, Staphylococcus epidermidis. As to conditions: for MIC: Staphylococcus epidermidis. How it is done: (§1) Assays for detecting and measuring bacterial biofilm formation are known in the art. An example of a biofilm formation assay useful in detecting and characterizing biofilm inhibitor compounds is described in Example 1, infra. Briefly, bacterial cells are inoculated into growth medium in individual wells of a 96-well assay plate in the presence or absence of a compound (known biofilm inhibitor or test compound). After incubation for a specified time, growth medium and non-biofilm bacterial cells are removed from each of the wells. The bacterial cells in any biofilms that are adhered to the surface of a well are fixed by addition of ethanol. The ethanol is removed, and the fixed biofilm bacteria cells are stained with crystal violet (CV). The intensity of CV staining is directly correlated with bacterial biofilm formation and is measured in the wells by reading the optical density at 600 nm (OD600). The difference in biofilm formation between untreated control and treated cultures provides an indication of relative biofilm inhibition activity (anti-biofilm activity). Use of different concentrations of an inhibitor in multiple and otherwise duplicate cultures permits determination of a compound's Minimal Biofilm Inhibitory Concentration (MBIC), which is defined herein as the lowest concentration of a compound that inhibits biofilm formation by at least 80% (i.e., ≧80%) compared to untreated control cultures.
(§2) A higher throughput was achieved by formatting the assay for use in flat-bottomed 96-well assay plates (Costar 3590 assay plates, Corning Life Sciences, Lowell, Mass.). The biofilm cultures grew on the bottoms of each well in a surface attached mode. In each assay plate, columns 1 and 12 contained untreated cultures, which served as negative controls (0% biofilm inhibition). Each of the assay wells in columns 2-11 contained a unique small molecule from the Microbiotix Screening Library (MSL) at a final concentration of 100 μM. Assay plates were inoculated with 200 μl/well of a culture of Staphylococcus pidermidis 18972 in 0.5×Tryptic Soy Broth (TSB; Becton Dickinson, Franklin Lakes, N.J.) in which the concentration of glucose was adjusted to 0.25% (w/v). The bacterial inocula were prepared by making a 1:100 dilution of an overnight culture grown in TSB in the media used for the screen. After inoculation, assay plates were sealed with foil tape and incubated at 37° C. for 18-20 hours (h). The optical density at 600 nm (OD600) was measured for each well using a VICTOR2V™ multiplate reader (Perkin Elmer, Waltham, Mass.) in order to quantify overall bacterial growth. The assay plates were processed to remove bacterial growth media and non-biofilm cells from the bottom of each assay well. This was accomplished by using a BioTek ELx405™ plate washer (BioTek Instruments, Inc., Winooski, Vt.). Biofilm bacteria were fixed by addition of 50 μl of 95% ethanol for 30 minutes (min). The ethanol was removed, and the fixed biofilm cultures were stained with 50 μl of 0.06% crystal violet (CV) for 60 min. Excess CV was removed by repeated washes using the BioTek ELx405™ plate washer. The amount of CV bound to each assay well was quantified by measuring OD600 using a VICTOR2V™ plate reader (Perkin Elmer).
(§3) A secondary assay provided a quantitative measure of both anti-biofilm activity and antibacterial activity in terms of the Minimal Biofilm Inhibitory Concentration (MBIC) and the Minimal Inhibitory Concentration (MIC), respectively. The MBIC and MIC are defined as the lowest compound concentrations that inhibit biofilm formation and bacterial growth, respectively, by at least 80% (i.e., ≧80%). The MBIC/MIC assay is formatted in a manner that is similar to the Microbroth dilution assays described by the Clinical and Laboratory Standards Institute (CLSI; formerly NCCLS) in protocol M7-A7. The growth conditions were optimized for biofilm growth in 96-well assay plates such that the resulting CV staining was within the linear range of detection. […]

The subject of test [2] is S. epidermidis strain 35894. As to the kind of experiment: MBIC/MIC secondary assay. Particulars: for MIC: Staphylococcus epidermidis. In kind it is cell-based, Staphylococcus epidermidis. On the procedure: as §1, §2, §3
The subject of test [3] is S. epidermidis strain O47. As to the kind of experiment: MBIC/MIC secondary assay. In kind it is cell-based, Staphylococcus epidermidis. As to conditions: for MIC: Staphylococcus epidermidis. On the procedure: as §1, §2, §3
Test [4] concerns S. aureus ATCC 35556. As to the kind of experiment: Inhibition of biofilm growth at various stages of biofilm development (time of addition). In kind it is cell-based, Staphylococcus aureus. Particulars: 22 hours total incubation, CV staining. How it is done:
Compound 4 was added to bacterial cultures at a concentration of 4XMBIC (12 μM) at various times (0, 1, 2, 4, 6, 8, 10, 12, and 21 hours) over a 22 hour incubation period. Biofilm growth was also followed in parallel cultures in the absence of Compound 4 (untreated controls). Biofilm growth was quantified in samples by staining with crystal violet and measuring OD600. […] See, Example 5 for details.
In this experiment, wells of a 96-well assay plate containing growth medium (0.5×TSB, 0.25% (w/v) glucose) were inoculated with S. aureus ATCC 35556 and incubated at 37° C. At selected times (0, 1, 2, 4, 6, 8, 10, 12, 21 hours) during the incubation period, Compound 4 was added to individual wells at a concentration of 4×MBIC. Biofilms were washed and stained with crystal violet (CV) to measure biofilm growth after the entire assay plate (all cultures) had been incubated for a total of 22 hours. Biofilm growth in the absence of Compound 4 was followed in parallel cultures (untreated control cultures). Samples were taken from untreated cultures at the same times as Compound 4 was added to the inhibition cultures to quantify the level of biofilm growth by the CV staining method. […]

The test system of test [5] is S. aureus ATCC 35556. As to the kind of experiment: Planktonic growth curve assay. In kind it is cell-based, Staphylococcus aureus. As to conditions: aerobic planktonic cultures; concentrations up to 8×MBIC; data not shown. How it is done:
However, the specificity of these compounds for inhibiting biofilm growth was verified using an alternative growth curve assay. Planktonic cultures of S. aureus ATCC 35556 were grown aerobically in the presence of various concentrations of Compound 4 (MBIC=3.125 μM). Bacterial cell growth was monitored over time by measuring OD600.

Each structure is given as a SMILES string. Where two headings read alike, the source gives them in different places.

Regarding `CCOc1cc(/C=C2\SC(=S)N(c3ccc(F)cc3)C2=O)ccc1O` [Compound 4, 3-(4-fluorophenyl)-5-(3-ethoxy-4-hydroxybenzylidene)-2-thioxothiazolidin-4-one], the figures for the MBIC in test [1] (S. epidermidis strain 1457), in test [2] (S. epidermidis strain 35894) and in test [3] (S. epidermidis strain O47) were 50 µM, 25 µM and 12.5 µM, respectively. Further, the MIC in test [1] (1457), in test [2] (35894) and in test [3] (O47) was not below 100 µM each time. Moreover, the “inhibition of biofilm formation, early stages” value in test [4] (Compound added at 4×MBIC at early stages (up to 2 h)) is “inhibited”. Besides, in test [4] (Compound added at 4×MBIC to maturing biofilms (8-16 h)), the “inhibition of biofilm formation, maturing biofilms” value is listed as “resistant”. In addition, the “effect on planktonic bacterial cell growth (OD600 over time)” value in test [5] is listed as “did not affect”.

With `CCOc1cc(/C=C2\SC(=S)N(c3cccc(F)c3)C2=O)ccc1O` [Compound 8, 3-(3-fluorophenyl)-5-(3-ethoxy-4-hydroxybenzylidene)-2-thioxothiazolidin-4-one], the figures for the MBIC in test [1] (S. epidermidis strain 1457), in test [2] (S. epidermidis strain 35894) and in test [3] (S. epidermidis strain O47) were 50 µM, 25 µM and 25 µM, respectively. Besides, the minimal inhibitory concentration (MIC) in test [1] (1457), in test [2] (35894) and in test [3] (O47) was not below 100 µM in each case.

On to `C=CCOc1cc(/C=C2\SC(=S)N(c3ccc(F)cc3)C2=O)ccc1O` [Compound 29, 3-(4-fluorophenyl)-5-(3-allyloxy-4-hydroxybenzylidene)-2-thioxothiazolidin-4-one], for which the MBIC in test [1] (S. epidermidis strain 1457) came to 25 µM; in test [2] (S. epidermidis strain 35894) it was 25 µM; in test [3] (S. epidermidis strain O47) it was 12.5 µM. The MIC is not below 100 µM in test [1] (S. epidermidis strain 1457, read-out: MIC); not below 100 µM in test [2] (S. epidermidis strain 35894, read-out: MIC); not below 100 µM in test [3] (S. epidermidis strain O47, read-out: MIC).

`CCOc1cc(/C=C2\SC(=S)N(c3cccc(C#N)c3)C2=O)ccc1O` [Compound 34, 3-(3-cyanophenyl)-5-(3-ethoxy-4-hydroxybenzylidene)-2-thioxothiazolidin-4-one]: the MBIC result in test [1] (S. epidermidis strain 1457) is “≧100 μM”; in test [2] (S. epidermidis strain 35894), 12.5 µM; in test [3] (S. epidermidis strain O47) it was 1.6 µM. The MIC in test [1] (1457), in test [2] (35894) and in test [3] (O47) was not below 100 µM in each case.

In the case of `CCOc1cc(/C=C2\SC(=S)N(c3cccnc3)C2=O)ccc1O` [Compound 36, 3-(pyridin-3-yl)-5-(3-ethoxy-4-hydroxybenzylidene)-2-thioxothiazolidin-4-one], the MBIC came to 12.5 µM in test [1] (S. epidermidis strain 1457), 12.5 µM in test [2] (S. epidermidis strain 35894) and 50 µM in test [3] (S. epidermidis strain O47). Also, the MIC in test [1] (1457), in test [2] (35894) and in test [3] (O47) was not below 100 µM each time.

In the case of `CCOc1cc(/C=C2\SC(=S)N(c3ccc(F)nc3)C2=O)ccc1O` [Compound 40, 3-(6-fluoropyridin-3-yl)-5-(3-ethoxy-4-hydroxybenzylidene)-2-thioxothiazolidin-4-one], the MBIC in test [1] (S. epidermidis strain 1457) came to 25 µM; in test [2] (S. epidermidis strain 35894), 6.3 µM; in test [3] (S. epidermidis strain O47), 6.3 µM. Further, the MIC in test [1] (1457), in test [2] (35894) and in test [3] (O47) was not below 100 µM in each case.
